# Results reported in paper PMC9358669, “Native metabolomics identifies the rivulariapeptolide family of protease inhibitors” (Nature Communications, 2022).
# Several values for one entry are separate records, joined by “and”; a condition that tells them apart may be missing. Equal values may be shown once. Read-outs that look alike come from different tables or passages of the source.
# Assays:
# Chymotrypsin [1] = molecular target: T1, Chymotrypsin (Bos taurus, UniProt P00766); test: Chymotrypsin inhibition, fluorogenic substrate assay (Suc-Ala-Ala-Pro-Phe-AMC); type: biochemical; details: for Mean (RFU/s): Chymotrypsin
# T1 construct: purchased Sigma-Aldrich
# Elastase = molecular target: T2, Elastase (Sus scrofa, UniProt P00772); test: Elastase inhibition, fluorogenic substrate assay (MeOSuc-Ala-Ala-Pro-Val-AMC); type: biochemical, Sus domesticus; details: 40 min pre-incubation; for Mean (RFU/s): Elastase
# T2 construct: purchased Sigma-Aldrich
# T2 sequence (P00772 27-266): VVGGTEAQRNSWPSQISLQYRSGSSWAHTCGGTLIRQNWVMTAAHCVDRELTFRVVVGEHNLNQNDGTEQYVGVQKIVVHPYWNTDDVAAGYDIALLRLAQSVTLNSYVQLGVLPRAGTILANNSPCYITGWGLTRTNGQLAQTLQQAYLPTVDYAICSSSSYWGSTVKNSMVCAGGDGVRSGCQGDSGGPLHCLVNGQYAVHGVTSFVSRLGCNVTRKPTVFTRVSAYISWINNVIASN
# Proteinase K = molecular target: T3, Proteinase K (Parengyodontium album, UniProt P06873); test: Proteinase K inhibition, fluorogenic substrate assay (Suc-Ala-Ala-Pro-Phe-AMC); type: biochemical, Tritirachium album; details: 40 min pre-incubation; for Mean (RFU/s): Proteinase K
# T3 construct: purchased Roche
# T3 sequence (P06873 106-384): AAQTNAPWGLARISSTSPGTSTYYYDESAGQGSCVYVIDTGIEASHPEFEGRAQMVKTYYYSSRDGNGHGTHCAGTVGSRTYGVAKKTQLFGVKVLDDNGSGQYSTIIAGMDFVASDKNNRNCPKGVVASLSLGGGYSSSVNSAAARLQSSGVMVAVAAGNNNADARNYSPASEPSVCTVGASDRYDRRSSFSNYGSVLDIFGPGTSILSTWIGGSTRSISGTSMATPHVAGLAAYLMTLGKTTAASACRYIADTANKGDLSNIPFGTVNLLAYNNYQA
# Chymotrypsin [2] = molecular target: T1, Chymotrypsin; test: Native metabolomics / native MS detection of chymotrypsin-ligand complexes; type: binding; details: for max. Ligand-protein ratio: replicates A, B, C
# Protocol: For native metabolomics experiments, the same chromatographic parameters were used and in addition, 220 µL/min (setup A) or 150 µL/min (setup B) ammonium acetate buffer was infused post-column through a make-up pump and a PEEKT-splitter and enzyme solution was infused with 2 µL/min flow rate via the integrated syringe pump. ESI settings were set to 40 arb. units sheath gas flow, the auxiliary gas flow was set to 10 arb. units and sweep gas flow was set to 0 arb. units. The auxiliary gas temperature was set to 150 °C. The spray voltage was set to 3 kV and the inlet capillary was heated to 253 °C. S-lens level was set to 30 V applied. MS scan range was set to 2000-4000 m/z (setup A) and 2500–4000 m/z (setup B) with a resolution Rm/z 200 140,000 (setup A) and 120,000 (setup B) with 2 microscans. MS acquisition was performed in all-ion fragmentation (AIF) mode with Rm/z 200 with 20% HCD collision energy and an isolation window of 2000 –4000 m/z (setup A) or 2500–4000 m/z (setup B).
# For native LC-MS data, multiple charged spectra were deconvoluted using the Xtract algorithm in Qualbrowser, part of the Xcalibur software (Thermo Scientific) and also using FLASHDeconv (version 2.0Beta) {Jeong, K. et al. FLASHDeconv: Ultrafast, High-Quality Feature Deconvolution for Top- Down Proteomics. Cell Syst 10, 213-218 e216 (2020).}. For Xtract algorithm, both deconvoluted native LC-MS and metabolomics LC-MS/MS.raw files were converted to the centroid.mzML file format using MSconvert of the proteowizard software package. For FLASHDeconv, the raw files were converted into centroid m/zML again using MSconvert software first. Then the converted mzML files were deconvolved to generate deconvolved.mzML format files. Feature finding of both file types was performed using a modified version of MZmine2.37 (corr.17.7). Feature tables from both intact protein mass and metabolomics data were matched by their retention time (RT) and an m/z offset corresponding to the mass of chymotrypsin (25234 Da) with an RT tolerance of 0.2 min and a mass tolerance of 4 Da.
# To optimize ESI setting as well as the influence of NH4Acetate concentration and pH, we used molassamide as a test compound. For optimization of ESI settings, we performed flow injections without a column and ramped ESI aux gas temperature, in-source CID energy, S-lense RF voltage. Optimization of pH values over the entire LC gradient and peak intensities were both assessed using three different make-up buffers. Make-up buffer 1 was water, make-up buffer 2 was 10 mM NH4Acetate buffer, and make-up buffer 3 was 10 mM NH4Acetate buffer + 0.2% ammonium hydroxide, v/v. Effects of NH4Acetate concentration was assessed with an online mixed make-up flow (using Experimental Setup B) with the low-pressure gradient pump. As solvent A we used LC-MS grade water and 100 mM NH4Acetate as solvent B. Molassamide was prepared as 100 µM solutions from a 10 mM stock solution in DMSO by preparing a 1:100 dilution into solvent mixture 1 (water + 10% acetonitrile + 0.1% formic acid). Samples were analyzed as described in micro-flow LC-MS/MS data acquisition (setup A); 2 µL of each solution were injected into the mass spectrometer, while chymotrypsin (Sigma), dissolved in water to a final concentration of 2 mg/mL, was injected through the syringe pump at a flow rate of 2 µL/min. pH values were assessed by disconnecting the flow to the source and collecting ~30 µL of solvent every minute, then testing this value on pH paper.
# Molassamide was prepared as 100 µM solutions from a 10 mM stock solution in DMSO by preparing a 1:100 dilution into solvent mixture 1 (water + 10% acetonitrile + 0.1% formic acid). From this 100 µM solution, dilutions were prepared at 10, 1, and 0.1 µM into solvent mixture 1. 2 µL of each solution were injected into the mass spectrometer. […]
# Chymotrypsin [3] = tested on: Chymotrypsin; set-up: method as in earlier work; details: Supplementary Table 5, Top 50 chymotrypsin inhibitors among Ahp-cyclodepsipeptides; cited from earlier work
# [4] = inhibitor concentration 0.0508053 nM
# [5] = inhibitor concentration 0.152416 nM
# [6] = inhibitor concentration 0.457247 nM
# [7] = inhibitor concentration 1.37174 nM
# [8] = inhibitor concentration 4.11523 nM
# [9] = inhibitor concentration 12.3457 nM
# [10] = inhibitor concentration 37.037 nM
# [11] = inhibitor concentration 111.111 nM
# [12] = inhibitor concentration 333.333 nM
# [13] = inhibitor concentration 1000 nM
# [14] = inhibitor concentration 3000 nM
smiles,measurement,setting,value
"C/C=C1\NC(=O)[C@@H](NC(=O)[C@@H](NC(=O)[C@H](C)NC(=O)CCC)[C@@H](C)O)[C@@H](C)OC(=O)[C@H](C(C)C)NC(=O)[C@H](Cc2ccc(O)cc2)N(C)C(=O)[C@H](Cc2ccccc2)N2C(=O)[C@H](CC[C@H]2O)NC1=O [Molassamide, molassamide]",IC50,"Chymotrypsin [1]; 40 min pre-incubation, mean, n = 3, read-out: IC50 Chymotrypsin",863 nM
same,Mean (RFU/s),"Chymotrypsin [1]; inhibitor concentration 0.0508053 nM, 40 min pre-incubation",5.082 RFU/s
same,Mean (RFU/s),"Chymotrypsin [1]; inhibitor concentration 0.152416 nM, 40 min pre-incubation",5.023 RFU/s
same,Mean (RFU/s),"Chymotrypsin [1]; inhibitor concentration 0.457247 nM, 40 min pre-incubation",5.172 RFU/s
same,Mean (RFU/s),"Chymotrypsin [1]; inhibitor concentration 1.37174 nM, 40 min pre-incubation",5.411 RFU/s
same,Mean (RFU/s),"Chymotrypsin [1]; inhibitor concentration 4.11523 nM, 40 min pre-incubation",5.346 RFU/s
same,Mean (RFU/s),"Chymotrypsin [1]; inhibitor concentration 12.3457 nM, 40 min pre-incubation",5.257 RFU/s
same,Mean (RFU/s),"Chymotrypsin [1]; inhibitor concentration 37.037 nM, 40 min pre-incubation",4.609 RFU/s
same,Mean (RFU/s),"Chymotrypsin [1]; inhibitor concentration 111.111 nM, 40 min pre-incubation",4.56 RFU/s
same,Mean (RFU/s),"Chymotrypsin [1]; inhibitor concentration 333.333 nM, 40 min pre-incubation",3.784 RFU/s
same,Mean (RFU/s),"Chymotrypsin [1]; inhibitor concentration 1000 nM, 40 min pre-incubation",2.129 RFU/s
same,Mean (RFU/s),"Chymotrypsin [1]; inhibitor concentration 3000 nM, 40 min pre-incubation",0.9597 RFU/s
same,IC50,"Chymotrypsin [1]; Supplementary Table 5, compounds of this study, read-out: Chymotrypsin IC50",862 nM
same,IC50,"Elastase; mean, n = 3",37.6 nM
same,Mean (RFU/s),Elastase; [4],0.8563 RFU/s
same,Mean (RFU/s),Elastase; [5],0.8307 RFU/s
same,Mean (RFU/s),Elastase; [6],0.841 RFU/s
same,Mean (RFU/s),Elastase; [7],0.8127 RFU/s
same,Mean (RFU/s),Elastase; [8],0.7663 RFU/s
same,Mean (RFU/s),Elastase; [9],0.6947 RFU/s
same,Mean (RFU/s),Elastase; [10],0.4253 RFU/s
same,Mean (RFU/s),Elastase; [11],0.1337 RFU/s
same,Mean (RFU/s),Elastase; [12],0.03867 RFU/s
same,Mean (RFU/s),Elastase; [13],0 RFU/s
same,Mean (RFU/s),Elastase; [14],0 RFU/s
same,IC50,"Proteinase K; mean, n = 3",21.6 nM
same,Mean (RFU/s),Proteinase K; [4],6.609 RFU/s
same,Mean (RFU/s),Proteinase K; [5],6.463 RFU/s
same,Mean (RFU/s),Proteinase K; [6],6.371 RFU/s
same,Mean (RFU/s),Proteinase K; [7],6.067 RFU/s
same,Mean (RFU/s),Proteinase K; [8],5.597 RFU/s
same,Mean (RFU/s),Proteinase K; [9],4.375 RFU/s
same,Mean (RFU/s),Proteinase K; [10],2.174 RFU/s
same,Mean (RFU/s),Proteinase K; [11],0.71 RFU/s
same,Mean (RFU/s),Proteinase K; [12],0.19 RFU/s
same,Mean (RFU/s),Proteinase K; [13],0.07 RFU/s
same,Mean (RFU/s),Proteinase K; [14],0 RFU/s
same,"Relative abundance Chymotrypsin-molassamide complex [%], Average",Chymotrypsin [2]; HESI Aux Gas Temperature 40 °C,32.7%
same,"Relative abundance Chymotrypsin-molassamide complex [%], Average",Chymotrypsin [2]; HESI Aux Gas Temperature 70 °C,28.3%
same,"Relative abundance Chymotrypsin-molassamide complex [%], Average",Chymotrypsin [2]; HESI Aux Gas Temperature 100 °C,32.3%
same,"Relative abundance Chymotrypsin-molassamide complex [%], Average",Chymotrypsin [2]; HESI Aux Gas Temperature 140 °C,39.0%
same,"Relative abundance Chymotrypsin-molassamide complex [%], Average",Chymotrypsin [2]; HESI Aux Gas Temperature 170 °C,34.0%
same,"Relative abundance Chymotrypsin-molassamide complex [%], Average",Chymotrypsin [2]; HESI Aux Gas Temperature 200 °C,35.3%
same,"Relative abundance Chymotrypsin-molassamide complex [%], Average",Chymotrypsin [2]; HESI Aux Gas Temperature 250 °C,27.7%
same,"Relative abundance Chymotrypsin-molassamide complex [%], Average",Chymotrypsin [2]; HESI Aux Gas Temperature 300 °C,28.7%
same,"Relative abundance Chymotrypsin-molassamide complex [%], Average",Chymotrypsin [2]; In-Source CID Energy 0 eV,27.7%
same,"Relative abundance Chymotrypsin-molassamide complex [%], Average",Chymotrypsin [2]; In-Source CID Energy 10 eV,29.3%
same,"Relative abundance Chymotrypsin-molassamide complex [%], Average",Chymotrypsin [2]; In-Source CID Energy 20 eV,33.0%
same,"Relative abundance Chymotrypsin-molassamide complex [%], Average",Chymotrypsin [2]; In-Source CID Energy 30 eV,32.3%
same,"Relative abundance Chymotrypsin-molassamide complex [%], Average",Chymotrypsin [2]; In-Source CID Energy 40 eV,30.7%
same,"Relative abundance Chymotrypsin-molassamide complex [%], Average",Chymotrypsin [2]; In-Source CID Energy 60 eV,12.3%
same,"Relative abundance Chymotrypsin-molassamide complex [%], Average",Chymotrypsin [2]; In-Source CID Energy 80 eV,1.3%
same,"Relative abundance Chymotrypsin-molassamide complex [%], Average",Chymotrypsin [2]; S-Lense RF level 10 %,34.3%
same,"Relative abundance Chymotrypsin-molassamide complex [%], Average",Chymotrypsin [2]; S-Lense RF level 30 %,31.0%
same,"Relative abundance Chymotrypsin-molassamide complex [%], Average",Chymotrypsin [2]; S-Lense RF level 50 %,30.0%
same,"Relative abundance Chymotrypsin-molassamide complex [%], Average",Chymotrypsin [2]; S-Lense RF level 70 %,40.7%
same,"Relative abundance Chymotrypsin-molassamide complex [%], Average",Chymotrypsin [2]; S-Lense RF level 90 %,30.7%
same,max. Ligand-protein ratio,Chymotrypsin [2]; concentration 0.01 µM,0.00
same,max. Ligand-protein ratio,Chymotrypsin [2]; concentration 0.10 µM,0.0566 and 0.0543 and 0.05
same,max. Ligand-protein ratio,Chymotrypsin [2]; concentration 1.00 µM,0.25 and 0.22 and 0.26
same,max. Ligand-protein ratio,Chymotrypsin [2]; concentration 6.67 µM,0.77 (2×) and 0.82
same,max. Ligand-protein ratio,Chymotrypsin [2]; concentration 12.50 µM,0.98 and 0.93 and 0.99
same,max. Ligand-protein ratio,Chymotrypsin [2]; concentration 20.00 µM,0.94 (2×) and 1.00
same,Peak Area Protein-Ligand-Complex,Chymotrypsin [2]; concentration [µM] 0.1,6.16E+04
same,Peak Area Protein-Ligand-Complex,Chymotrypsin [2]; concentration [µM] 1,8.18E+05
same,Peak Area Protein-Ligand-Complex,Chymotrypsin [2]; concentration [µM] 10,1.09E+07
same,Peak Area Protein-Ligand-Complex,Chymotrypsin [2]; concentration [µM] 50,4.40E+07
same,Peak Area Protein-Ligand-Complex,Chymotrypsin [2]; concentration [µM] 100,7.00E+07
same,IC50,Chymotrypsin [3],234 nM
